Measurements: paper PMC7066280 (Investigational New Drugs, 2019)
Read-outs that look alike come from different tables or passages of the source.

Experiments:
[1] = design: method as in Agios data on file; conditions: ref Agios data on file; cited from earlier work
[2] = Ivosidenib plasma PK after single and multiple 500 mg QD doses (dose expansion); assay type: in vivo, human; conditions: for Cmax / AUC(0-t) / Tmax: human, plasma, oral, 500 mg
Protocol: Additional predose samples were taken on cycle 1, day 8; cycle 1, day 15; cycle 3, day 1; and end of treatment.
(§1) Plasma ivosidenib was measured using two validated liquid chromatography-tandem mass spectrometry (LC-MS/MS) methods. The lower limit of quantification (LLOQ) was 1.00 ng/mL (low-range assay) or 50.0 ng/mL (high-range assay). […] Plasma 2-HG concentrations were measured using a qualified LC-MS/MS method with an LLOQ of 30.0 ng/mL. Concentrations of 2-HG in tumor biopsy samples were quantified using qualified LC-MS/MS methods with an LLOQ of 7.5 μg/g for brain tumor homogenate, 100 ng/g for liver tumor homogenate (low-range assay), and 30 μg/g for liver tumor homogenate (high-range assay). Plasma 4β-OHC and cholesterol were measured using a validated LC-MS/MS method. The LLOQ was 5 ng/mL for 4β-OHC and 25 μg/mL for cholesterol in human plasma.
(§2) PK parameters included area under the plasma concentration-time curve (AUC), maximum plasma concentration (Cmax), time to maximum plasma concentration (Tmax), terminal elimination half-life (t1/2), and apparent oral clearance at steady state (CLss/F). Accumulation ratio (Racc), based on Cmax and AUC, was also assessed during the dose escalation portion. PD (2-HG) parameters included baseline-effect value, area under the effect concentration-time curve (AUEC0-10h for the dose escalation portion, or AUEC0-8h for the dose escalation and expansion portions), percent change from baseline in AUEC (%BAUEC0-10h for the escalation portion, or %BAUEC0-8h for the dose escalation and expansion portions), average plasma concentration (Cavg), and percent inhibition for Cavg (%BCavg). For the dose escalation portion, the time-matched ratios of 4β-OHC to cholesterol were calculated.

tumor 2-HG = experiment: 2-HG in paired tumor biopsy samples; assay type: in vivo; conditions: Homo sapiens; 500 mg QD multiple doses, cycle 3 day 1 and cycle 7 day 1, paired biopsies, 21 patients, all tumor types; read-out: 2-HG inhibition in tumors
Protocol: Tumor biopsies were also collected for 2-HG assessment at screening, and at day 1 of cycle 3. Further biopsies were collected depending on the status of disease at cycle 7, day 1 or at any time that disease progression was suspected and/or at the end of treatment.
as §1

[3] = Ivosidenib plasma PK after a single oral dose (day −3, dose escalation), LC-MS/MS, non-compartmental; assay type: in vivo; conditions: human, oral, 500 mg, single dose of 500 mg, patients with cholangiocarcinoma/chondrosarcoma, read-out: mean t1/2 (converted)
Protocol: In the dose escalation portion, patients with 1) glioma and 2) non-glioma solid tumors were enrolled into sequential cohorts using a standard 3 + 3 design. […] At least 3 patients in each cohort also received a single dose 3 days prior to the start of multiple dosing (i.e., day −3).
These samples were optional for any further patients enrolled in these cohorts. Further blood samples were collected from all patients up to 10 h postdose on cycle 1, day 15 and cycle 2, day 1. A subset of samples was also used for evaluation of plasma 4β-hydroxycholesterol (4β-OHC) and 4β-OHC:cholesterol ratios. Blood samples for assessment of 2-HG only were also collected at screening.
as §1, §2

In the case of N#Cc1ccnc(N2C(=O)CC[C@H]2C(=O)N(c2cncc(F)c2)[C@H](C(=O)NC2CC(F)(F)C2)c2ccccc2Cl)c1 [ivosidenib], the “FDA Biopharmaceutical Classification System class” value [1] is listed as “BCS Class II”, the “permeability (BCS)” value [1] is listed as “high permeability” and the “solubility (BCS)” value [1] is listed as “low solubility”. For the same compound, the “Cmax at steady state lower in glioma than in cholangiocarcinoma/chondrosarcoma” value [2] was ~29%, the Cmax ([2]; expansion cholangiocarcinoma, cycle 1 day 1, geometric mean (geometric CV%)) was 3660 ng/mL and the AUC(0-t) ([2]; expansion cholangiocarcinoma, cycle 1 day 1, geometric mean (geometric CV%), read-out: AUC0-8hr) was 19700 ng·h/mL. For the same compound, the Tmax ([2]; expansion cholangiocarcinoma, cycle 1 day 1, median (minimum; maximum)) was 3.08 h, the Cmax ([2]; expansion cholangiocarcinoma, cycle 2 day 1, geometric mean (geometric CV%)) was 4580 ng/mL and the AUC(0-t) ([2]; expansion cholangiocarcinoma, cycle 2 day 1, geometric mean (geometric CV%), read-out: AUC0-8hr) was 29000 ng·h/mL. The AUC(0-t) ([2]; expansion cholangiocarcinoma, cycle 2 day 1, geometric mean (geometric CV%), read-out: AUC0-24hr) was 75600 ng·h/mL, the Tmax ([2]; expansion cholangiocarcinoma, cycle 2 day 1, median (minimum; maximum)) was 2.03 h and the Cmax ([2]; expansion chondrosarcoma, cycle 1 day 1, geometric mean (geometric CV%)) was 4260 ng/mL. For the same compound, the AUC(0-t) ([2]; expansion chondrosarcoma, cycle 1 day 1, geometric mean (geometric CV%), read-out: AUC0-8hr) was 22900 ng·h/mL, the Tmax ([2]; expansion chondrosarcoma, cycle 1 day 1, median (minimum; maximum)) was 2.98 h and the Cmax ([2]; expansion chondrosarcoma, cycle 2 day 1, geometric mean (geometric CV%)) was 5300 ng/mL. It also gave an AUC(0-t) ([2]; expansion chondrosarcoma, cycle 2 day 1, geometric mean (geometric CV%), read-out: AUC0-8hr) of 36200 ng·h/mL, an AUC(0-t) ([2]; expansion chondrosarcoma, cycle 2 day 1, geometric mean (geometric CV%), read-out: AUC0-24hr) of 88700 ng·h/mL and a Tmax ([2]; expansion chondrosarcoma, cycle 2 day 1, median (minimum; maximum)) of 2.08 h. The Cmax ([2]; expansion enhancing glioma, cycle 1 day 1, geometric mean (geometric CV%)) was 3140 ng/mL, the AUC(0-t) ([2]; expansion enhancing glioma, cycle 1 day 1, geometric mean (geometric CV%), read-out: AUC0-8hr) was 16000 ng·h/mL and the Tmax ([2]; expansion enhancing glioma, cycle 1 day 1, median (minimum; maximum)) was 3.01 h. For the same compound, the Cmax ([2]; expansion enhancing glioma, cycle 2 day 1, geometric mean (geometric CV%)) was 3800 ng/mL, the AUC(0-t) ([2]; expansion enhancing glioma, cycle 2 day 1, geometric mean (geometric CV%), read-out: AUC0-8hr) was 24400 ng·h/mL and the AUC(0-t) ([2]; expansion enhancing glioma, cycle 2 day 1, geometric mean (geometric CV%), read-out: AUC0-24hr) was 62600 ng·h/mL. It also gave a Tmax ([2]; expansion enhancing glioma, cycle 2 day 1, median (minimum; maximum)) of 2.03 h, a Cmax ([2]; expansion non-enhancing glioma, cycle 1 day 1, geometric mean (geometric CV%)) of 2790 ng/mL and an AUC(0-t) ([2]; expansion non-enhancing glioma, cycle 1 day 1, geometric mean (geometric CV%), read-out: AUC0-8hr) of 14900 ng·h/mL. It also gave a Tmax ([2]; expansion non-enhancing glioma, cycle 1 day 1, median (minimum; maximum)) of 2.58 h, a Cmax ([2]; expansion non-enhancing glioma, cycle 2 day 1, geometric mean (geometric CV%)) of 3540 ng/mL and an AUC(0-t) ([2]; expansion non-enhancing glioma, cycle 2 day 1, geometric mean (geometric CV%), read-out: AUC0-8hr) of 22200 ng·h/mL. The AUC(0-t) ([2]; expansion non-enhancing glioma, cycle 2 day 1, geometric mean (geometric CV%), read-out: AUC0-24hr) was 55700 ng·h/mL, the Tmax ([2]; expansion non-enhancing glioma, cycle 2 day 1, median (minimum; maximum)) was 3.05 h and the Cmax ([2]; expansion other solid tumors, cycle 1 day 1, geometric mean (geometric CV%)) was 2290 ng/mL. It also gave an AUC(0-t) ([2]; expansion other solid tumors, cycle 1 day 1, geometric mean (geometric CV%), read-out: AUC0-8hr) of 13800 ng·h/mL, a Tmax ([2]; expansion other solid tumors, cycle 1 day 1, median (minimum; maximum)) of 2.55 h and a Cmax ([2]; expansion other solid tumors, cycle 2 day 1, geometric mean (geometric CV%)) of 4130 ng/mL. The AUC(0-t) ([2]; expansion other solid tumors, cycle 2 day 1, geometric mean (geometric CV%), read-out: AUC0-8hr) was 25100 ng·h/mL, the AUC(0-t) ([2]; expansion other solid tumors, cycle 2 day 1, geometric mean (geometric CV%), read-out: AUC0-24hr) was 62200 ng·h/mL and the Tmax ([2]; expansion other solid tumors, cycle 2 day 1, median (minimum; maximum)) was 1.98 h. The Cmax ([2]; expansion overall, cycle 1 day 1, geometric mean (geometric CV%)) was 3310 ng/mL, the AUC(0-t) ([2]; expansion overall, cycle 1 day 1, geometric mean (geometric CV%), read-out: AUC0-8hr) was 17600 ng·h/mL and the Tmax ([2]; expansion overall, cycle 1 day 1, median (minimum; maximum)) was 3 h. It also gave a Cmax ([2]; expansion overall, cycle 2 day 1, geometric mean (geometric CV%)) of 4210 ng/mL, an AUC(0-t) ([2]; expansion overall, cycle 2 day 1, geometric mean (geometric CV%), read-out: AUC0-8hr) of 26600 ng·h/mL and an AUC(0-t) ([2]; expansion overall, cycle 2 day 1, geometric mean (geometric CV%), read-out: AUC0-24hr) of 68500 ng·h/mL. For the same compound, the Tmax ([2]; expansion overall, cycle 2 day 1, median (minimum; maximum)) was 2.14 h, the inhibition at 500 mg (tumor 2-HG) was ≤ 100% and the half-life [3] was 64 h.
